The test concerns HCV JFH1 3' UTR dsRNA. Nature of the test: dsRNA intercalation assay (agarose gel). Format: binding, hepatitis C virus. As to conditions: peptide 20 μM; 45 min; 1% agarose gel. An excerpt:
scans, with a resolution of 0.2 nm. To investigate the conformational changes by the membrane environments, the data were obtained in vesicles containing POPC:POPS (9:1), and POPC:Cholesterol (9:1). CD spectra were typically recorded as an average of the eight scans that were obtained in millidegrees and converted to molar ellipticity [θ] in deg·cm2·dmol-1. The peptide concentration was 10 μmol·L-1, and the proportion of lipid/peptide was 100 (L/P = 100).
Effect of peptides on dsRNA intercalation assay
To assess GA-Hecate’s dsRNA intercalation capacity, we performed an assay adapted from Krawczyk et al. 2009. Initially, a PCR reaction was made and the HCV JFH1 3’ untranslated region (UTR) (accession no. AB047639) was amplified by specific primers flanked by a T7 promoter sequence (F
273 bp, was purified using a ZymocleanTM Gel DNA recovery Kit (Zymo Research) and used as a template for in vitro dsRNA production using a T7 Ribomax Express kit (Promega). […] GA-Hecate, Hecate and Lys-Hecate (20 μM) were incubated with […] of dsRNA, for 45 min, and subsequently analysed in 1% agarose gel 1X TAE stained with ethidium bromide. […]
In order to guarantee that the virus inhibition effect was not related exclusively to cell death trigger, all concentrations were evaluated to necrosis and apoptosis induction. […]

Structures are written as SMILES. Where a SMILES comes first, the peptide text is derived from it. The star is where a group is joined. Galloyl = O=C(c1cc(O)c(O)c(O)c1)*

Regarding `CC(C)C[C@H](NC(=O)[C@H](C)NC(=O)[C@H](CCCCN)NC(=O)[C@H](CCCCN)NC(=O)[C@H](CC(C)C)NC(=O)[C@H](C)NC(=O)[C@H](CCCCN)NC(=O)[C@H](CCCCN)NC(=O)[C@H](CC(C)C)NC(=O)[C@H](CCCCN)NC(=O)[C@H](CCCCN)NC(=O)[C@H](CC(C)C)NC(=O)[C@H](C)NC(=O)[C@H](CCCCN)NC(=O)[C@H](CCCCN)NC(=O)[C@H](CC(C)C)NC(=O)[C@H](C)NC(=O)[C@H](CCCCN)NC(=O)[C@H](CC(C)C)NC(=O)[C@H](C)NC(=O)[C@H](CC(C)C)NC(=O)[C@H](C)NC(=O)[C@H](Cc1ccccc1)NC(=O)c1cc(O)c(O)c(O)c1)C(N)=O` [GA-Hecate] (Galloyl-FALALKALKKALKKLKKALKKAL-NH2), the “intercalation in HCV dsRNA” value was “able to intercalate in HCV dsRNA”.

The values are drawn from PMC6156508, “GA-Hecate antiviral properties on HCV whole cycle represent a new antiviral class and open the door for the development of broad spectrum antivirals” (Scientific Reports, 2018).
